Results published in patent US4902617A, “Enzyme and process for producing the same” (Hoffmann-La Roche Inc., priority 1986, dated 1990).
Each block holds one molecule with its values, some of them ahead of it.

Assays:
[1] = biological target: T1, L-sorbosone dehydrogenase, purified from cytosol fraction of Gluconobacter oxydans UV-10 (FERM BP-1267) (Gluconobacter oxydans, UniProt Q47943); assay: biochemical; settings: pH 7, read-out: Relative Activity (%) in presence of substance
T1 sequence (Q47943 1-498): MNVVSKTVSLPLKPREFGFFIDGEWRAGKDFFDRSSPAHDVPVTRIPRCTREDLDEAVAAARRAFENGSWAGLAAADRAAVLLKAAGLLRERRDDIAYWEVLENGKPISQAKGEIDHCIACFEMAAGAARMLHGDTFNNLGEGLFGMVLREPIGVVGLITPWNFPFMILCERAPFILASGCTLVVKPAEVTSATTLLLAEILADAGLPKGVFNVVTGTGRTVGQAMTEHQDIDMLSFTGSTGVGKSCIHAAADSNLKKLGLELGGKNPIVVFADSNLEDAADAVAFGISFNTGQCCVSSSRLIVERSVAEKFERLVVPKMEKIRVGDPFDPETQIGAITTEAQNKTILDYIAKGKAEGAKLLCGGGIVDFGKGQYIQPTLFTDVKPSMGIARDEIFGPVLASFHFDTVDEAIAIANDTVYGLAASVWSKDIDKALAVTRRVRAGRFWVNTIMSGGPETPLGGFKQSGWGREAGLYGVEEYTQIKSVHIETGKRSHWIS

[2] = biological target: T1, L-sorbosone dehydrogenase, purified from cytosol fraction of Gluconobacter oxydans UV-10 (FERM BP-1267)

SMILES: O=C(O)CI [ICH2 COONa]
activity at 5000 µM [1]: 57.7%

activity at 5000 µM [1]: 119%
SMILES: O[C@H](CS)[C@H](O)CS (racemic) [Dithiothreitol]

SMILES: [N-]=[N+]=[N-].[Na+] [NaN3]
Relative Activity (%) in presence of substance ([2]; substance conc. 5 mM, None = 100, pH 7.0, 30° C.): 100%

SMILES: CCN1C(=O)C=CC1=O [N--Ethylmaleimide, N-Ethylmaleimide]
Effect on enzyme activity (in words) ([2]; summary of Table 8): inhibited the enzyme activity strongly
activity at 1000 µM [1]: 0%
